Source: patent publication US5075299A, “Cephalosporin compounds and antibacterial agents” (Meiji Seika Kaisha, Ltd., priority 1988, dated 1991)
Converted amounts (≈) assume the structure as drawn. Read-outs that look alike come from different tables or passages of the source.

Legend:
Proteus rettgeli GN624 = assay: antibacterial activity, agar dilution method; type: cell-based; details: read-out: Antibacterial Activity MIC
Escherichia coli GN206 = assay: antibacterial activity, agar dilution method; type: cell-based
[1] = test system: Staphylococcus aureus 606 E-25; assay: antibacterial activity, agar dilution method; type: cell-based
[2] = test system: Serratia marcescens GN629; assay: antibacterial activity, agar dilution method; type: cell-based
[3] = test system: Klebsiella pneumoniae GN118; assay: antibacterial activity, agar dilution method; type: cell-based
[4] = test system: Citrobacter froindii GN346; assay: antibacterial activity, agar dilution method; type: cell-based
[5] = test system: Pseudomonas aeruginosa MB3833; assay: antibacterial activity, agar dilution method; type: cell-based
[6] = test system: Escherichia coli W3630 RGN238; assay: antibacterial activity, agar dilution method; type: cell-based; details: W3630RGN238, read-out: Antibacterial Activity MIC
mice = assay: acute toxicity using mice; type: in vivo; details: dose of 2 g/kg by intravenous injection
From the text: Acute toxicity of the compound of Example 2 was examined using mice.

[7] = test system: Pseudomonas aeruginosa IAM-1007; assay: antibacterial activity, agar dilution method; type: cell-based
[8] = Proteus rettgeli GN624, agar dilution method
[9] = Escherichia coli GN206, agar dilution method, read-out: Antibacterial Activity MIC
[10] = 606E25, Staphylococcus aureus 606 E-25, agar dilution method, read-out: Antibacterial Activity MIC
[11] = Serratia marcescens GN629, agar dilution method, read-out: Antibacterial Activity MIC
[12] = Klebsiella pneumoniae GN118, agar dilution method, read-out: Antibacterial Activity MIC
[13] = Citrobacter froindii GN346, agar dilution method, read-out: Antibacterial Activity MIC
[14] = Pseudomonas aeruginosa MB3833, agar dilution method, read-out: Antibacterial Activity MIC
[15] = IAM1007, Pseudomonas aeruginosa IAM-1007, agar dilution method, read-out: Antibacterial Activity MIC
[16] = Klebsiella pneumoniae, GN118, read-out: Antibacterial Activity MIC

Structure (SMILES) | MIC (Proteus rettgeli GN624; [8]) | MIC (Escherichia coli GN206; [9]) | MIC [1, 10] | MIC [2, 11] | MIC [3, 12] | MIC [4, 13] | MIC [5, 14] | MIC [6] | Acute toxicity (death) (mice) | MIC [7, 15] | MIC (Proteus rettgeli GN624) | MIC (Escherichia coli GN206; Escherichia coli, GN206, read-out: Antibacterial Activity MIC) | MIC ([1]; Staphylococcus aureus, 606E25, read-out: Antibacterial Activity MIC) | MIC ([2]; Serratia marcescens, GN629, read-out: Antibacterial Activity MIC) | MIC [3, 16] | MIC ([4]; Citrobacter, GN346, read-out: Antibacterial Activity MIC) | MIC ([5]; Pseudomonas aeruginosa, MB3833, read-out: Antibacterial Activity MIC) | MIC ([7]; Pseudomonas aeruginosa, IAM1007, read-out: Antibacterial Activity MIC)
Cc1c(O)c(=O)cc(CO/N=C(\C(=O)NC2C(=O)N3C(C(=O)O)=C(CSc4cnns4)CSC23)c2csc(N)n2)n1O (stereo not shown) [Example 2, 7-((Z)-2-(2-Aminothiazol-4-yl)-2-(6-methyl-1,5-dihydroxy-4-pyridon-2-ylmethoxyimino)acetamido)-3-(1,2,3-thiadiazol-5-yl-thiomethyl)-3-cephem-4-carboxylic acid] | 0.1 µg/mL (≈ 0.153 µM) | 0.39 µg/mL (≈ 0.598 µM) | 12.5 µg/mL (≈ 19.2 µM) | 0.05 µg/mL (≈ 0.0766 µM) | < 0.025 µg/mL | 6.25 µg/mL (≈ 9.58 µM) | < 0.025 µg/mL | < 0.025 µg/mL | no death was noted | < 0.025 µg/mL | – | – | – | – | – | – | – | –
CC(C)(O/N=C(\C(=O)N[C@@H]1C(=O)N2C(C(=O)[O-])=C(C[n+]3ccccc3)CS[C@H]12)c1csc(N)n1)C(=O)O [CAZ, reference compound] | – | – | – | – | – | – | – | 0.39 µg/mL (≈ 0.714 µM) | – | – | 1.56 µg/mL (≈ 2.85 µM) | 1.56 µg/mL (≈ 2.85 µM) | 12.5 µg/mL (≈ 22.9 µM) | 0.39 µg/mL (≈ 0.714 µM) | 0.78 µg/mL (≈ 1.43 µM) | 50 µg/mL (≈ 91.5 µM) | 0.78 µg/mL (≈ 1.43 µM) | 1.56 µg/mL (≈ 2.85 µM)
Cc1c(O)c(=O)cc(CO/N=C(\C(=O)NC2C(=O)N3C(C(=O)O)=C(CSc4nnnn4C)CSC23)c2csc(N)n2)n1O (stereo not shown) [Example 4, 7-((Z)-2-(2-Aminothiazol-4-yl)-2-(6-methyl-1,5-dihydroxy-4-pyridon-2-ylmethoxyimino)acetamido)-3-(1-methyl-1H-tetrazol-5-ylthiomethyl)-3-cephem-4-carboxylic acid] | 0.05 µg/mL (≈ 0.0768 µM) | 0.1 µg/mL (≈ 0.154 µM) | 25 µg/mL (≈ 38.4 µM) | 0.05 µg/mL (≈ 0.0768 µM) | < 0.025 µg/mL | 6.25 µg/mL (≈ 9.61 µM) | < 0.025 µg/mL | < 0.025 µg/mL | – | < 0.025 µg/mL | – | – | – | – | – | – | – | –
Cc1cc(=O)c(O)c(CO/N=C(\C(=O)NC2C(=O)N3C(C(=O)O)=C(CSc4cnns4)CSC23)c2csc(N)n2)n1O (stereo not shown) [Example 6] | 0.1 µg/mL (≈ 0.153 µM) | 0.78 µg/mL (≈ 1.2 µM) | 1.56 µg/mL (≈ 2.39 µM) | 0.2 µg/mL (≈ 0.306 µM) | – | 6.25 µg/mL (≈ 9.58 µM) | 0.39 µg/mL (≈ 0.598 µM) | 0.05 µg/mL (≈ 0.0766 µM) | – | 0.39 µg/mL (≈ 0.598 µM) | – | – | – | – | < 0.025 µg/mL | – | – | –
CO/N=C(\C(=O)N[C@@H]1C(=O)N2C(C(=O)O)=C(COC(C)=O)CS[C@H]12)c1csc(N)n1 [CTX, reference compound] | 1.56 µg/mL (≈ 3.43 µM) | 1.56 µg/mL (≈ 3.43 µM) | 1.56 µg/mL (≈ 3.43 µM) | 0.39 µg/mL (≈ 0.856 µM) | 0.05 µg/mL (≈ 0.11 µM) | 12.5 µg/mL (≈ 27.4 µM) | 12.5 µg/mL (≈ 27.4 µM) | 0.2 µg/mL (≈ 0.439 µM) | – | 12.5 µg/mL (≈ 27.4 µM) | – | – | – | – | – | – | – | –
